Measurements: patent publication US9732105B2, “Targeted nitroxide agents” (University of Pittsburgh—of the Commonwealth System of …, priority 2011, dated 2017)
Where two headings read alike, the source gives them in different places.

Legend:
[1] = Ascorbic acid electron scavenging assay (disappearance of nitroxide ESR signal); assay type: biochemical; conditions: 0.5 μM nitroxide, nitroxide ESR signal after 8.5 min; for Signal Decrease (%) (a): 35 μM ascorbate; for Signal Decrease (%) (b): 280 μM ascorbate; for Signal Decrease (%) (c): 1.12 mM ascorbate
Source text: In contrast to the DPPH assay, which mainly addresses the radical scavenging/reducing properties of nitroxides and hydroxylamines, the reaction of nitroxides with ascorbic acid benchmarks their ability to act as oxidizing agents in their conversion to hydroxylamines, which is important to their protective function as electron scavengers in the mitochondrial electron transport chain. The electron acceptor potentials of various nitroxides were thus benchmarked in the presence of low, medium, and high concentrations of the electron donor ascorbate (Table 3). ESR was used to detect the characteristic triplet of the nitroxide vs the doublet of ascorbate radicals (see supplementary information), and the disappearance of the former and appearance of the latter was measured over 8.5 min.

Ercc1^−/− MEFs = assay: Cell proliferation / rescue of oxidative-stress-induced senescence in Ercc1−/− MEFs; assay type: cell-based; conditions: for EC50: read-out: Cell proliferation EC50
Source text: Cell survival in irradiation studies depends on complex biochemical pathways, possibly accounting for the complex correlation of nitroxide structure and radiation mitigation properties. Irradiation-induced cell death results from an accumulation of events that individually are not able to kill the cell, but which become lethal when added together. To develop a firmer basis for studying structural modifications, we assayed the ability to rescue cellular senescence induced by oxidative stress in Ercc1^−/− MEFs as a function of test agents (Table 5).
Ercc1^−/− MEFs completely lack a critical DNA repair factor, making these cells highly sensitive to genotoxic and oxidative stress. Growth of the Ercc1^−/− MEFs in 20% 02 results in cellular senescence as measured by senescence associated β-gal, γ-H2AX staining and p16 protein levels. The ability to rescue senescence, as measured by an increase in cell number, correlates with the inhibition of oxidative stress.

[2] = DPPH radical scavenging assay; assay type: biochemical; conditions: for EC50: EtOH, 100 μM DPPH, 30 min at 37° C.
Source text: The free radical reduction abilities of the nitroxides and nitroxide-conjugates were benchmarked by the DPPH (2,2-diphenyl-1-picrylhydrazyl) assay.

[3] = system: 32Dcl3 murine hematopoietic cells; assay: Irradiation survival assay (colony formation) in 32Dcl3 cells; assay type: cell-based; conditions: for Do, before irradiation / ñ, before irradiation: 10 μM nitroxide for 1 h before irradiation, 0 to 8 Gy; for Do, before irradiation / ñ, before irradiation / Do, after irradiation / ñ, after irradiation: colonies after 7 d; for Do, after irradiation / ñ, after irradiation: cells irradiated, then placed in media containing 10 μM nitroxide; for protection of cells from irradiation (in words): given 1 h before irradiation, shown by increased D0
Source text: Irradiation survival assays were used to test the ability of selected nitroxide-conjugates to protect against, or mitigate, irradiation-induced damage of 32Dcl3 murine hematopoietic cells.

[4] = Stability of the free nitroxide on storage; assay type: physicochemical; conditions: after removal of the Boc group; storage at rt
Source text: Preparation of 3-amino-ABNO (12) was envisioned from the known ketone 21, which was easily accessible in one step from acetonedicarboxylic acid and glutaraldehyde (Scheme 1). Conversion of 21 to oxime 22, followed by reduction to the amine with nickel boride and N-Boc protection provided carbamate 23 in high yield. Removal of the benzyl group by catalytic hydrogenolysis and oxidation of the free secondary amine in the presence of urea-hydrogen peroxide complex (UHP) furnished the Boc-protected nitroxide 24.
A mixture of Boc-protected amine 3-Boc-amino-ABNO (24, 200 mg, 0.783 mmol) in a 4.0 N solution of HCl in 1,4-dioxane (3.3 mL, 13.2 mmol) was stirred at 0° C. for 1 h and at rt for an additional 2 h. The suspension was then filtered and the solid rinsed with cold dry Et2O, to give 167 mg of an off-white powder. It was dissolved in a minimum of 2.5 N aq. NaOH, and extracted with warm CHCl3 (7×). The combined organic layers were dried (K2CO3), filtered and concentrated in vacuo to afford 110 mg (90%) of a red oil. Upon high vacuum and/or storage at rt for not more than 1 h, the product started to loose the red color characteristic for a nitroxide and became pale yellow. Thus, the title compound is unstable.

With `CC(C)C[C@@H](/C=C/[C@H](Cc1ccccc1)C(=O)N1CCC[C@H]1C(=O)N[C@H](C(=O)N[C@@H](CCCNC(=O)OCc1ccccc1)C(=O)NC1CC(C)(C)N([O])C(C)(C)C1)C(C)C)NC(=O)OC(C)(C)C` [XJB-5-131] the “Signal Decrease (%) (a)” value [1] was 76.7%, the “Signal Decrease (%) (b)” value [1] was 92.4% and the EC50 (Ercc1^−/− MEFs; Ercc1−/− MEFs, 20% O2) was 212 ± 5.1 nM. For the same compound, the “DPPH radical scavenging activity (in words)” value [2] was “did not exhibit any significant activity”.

`CC(C)C[C@@H](/C=C/CC(=O)NC1CC(C)(C)N([O])C(C)(C)C1)NC(=O)OCc1ccccc1` [Compound 1] gave an EC50 (Ercc1^−/− MEFs; Ercc1−/− MEFs, 20% O2) of 589 nM.

In the case of `CC1(C)c2ccc(N)cc2C(C)(C)N1O` [Compound 8-H], the EC50 [2] is reported as 169000 ± 7000 nM.

With `O=C1O[C@H]([C@@H](O)CO)C(O)=C1O` [Ascorbic acid, reference compound] the EC50 [2] was 28000 ± 5000 nM.

With `CC(C)(C)OC(=O)NC1CC2CCCC(C1)N2O` (stereo not shown) [Compound 24, 3-(tert-Butoxycarbonylamino)-9-azabicyclo[3.3.1]nonane N-oxyl] the “Signal Decrease (%) (a)” value [1] was 100%, the “Signal Decrease (%) (b)” value [1] was 100% and the EC50 (Ercc1^−/− MEFs; Ercc1−/− MEFs, 20% O2) was 40 nM.

For `CC(C)C[C@@H](/C=C/C(F)(F)C(=O)NC1CC(C)(C)N([O])C(C)(C)C1)NC(=O)OC(C)(C)C` [Compound 6], the “Signal Decrease (%) (a)” value [1] was 58.4%, the “Signal Decrease (%) (b)” value [1] was 94.1% and the EC50 (Ercc1^−/− MEFs) was 7.6 ± 1.4 nM.

Work on `CC(C)C[C@H](NC(=O)OC(C)(C)C)[C@@H]1C[C@H]1CC(=O)NC1CC(C)(C)N([O])C(C)(C)C1` [Compound 2] yielded an EC50 (Ercc1^−/− MEFs; Ercc1−/− MEFs, 20% O2) of 332 nM.

For `COc1cc(/C=C/C(=O)CC(=O)/C=C/c2ccc(O)c(OC)c2)ccc1O` [Curcumin, reference compound], the EC50 (Ercc1^−/− MEFs; Ercc1−/− MEFs, 20% O2) was 1000 nM and the “rescue of senescence (in words)” value (Ercc1^−/− MEFs; used as negative control) was “only very weak effects”.

For 5-amino-TMIO [Compound 8], the “Signal Decrease (%) (c)” value [1] was 40.3% and the EC50 (Ercc1^−/− MEFs; Ercc1−/− MEFs, 20% O2) was under 1 nM.

With `CC(C)C[C@@H](/C=C/CC(=O)NC1[C@@H]2CC3C[C@H]1C[C@](C)(C2)N3[O])NC(=O)OC(C)(C)C` (stereo partly shown) [Compound 33] the “Do, before irradiation” value [3] was 2.6 ± 0.4 Gy, the “ñ, before irradiation” value [3] was 1.0 ± 0.1 and the “Do, after irradiation” value [3] was 1.3 ± 0.1 Gy. For the same compound, the “ñ, after irradiation” value [3] was 2.5 ± 0.3, the “protection of cells from irradiation (in words)” value (shortened to “protection of cells”) [3] was “able to protect cells from multiple killing events” and the EC50 (Ercc1^−/− MEFs; Ercc1−/− MEFs, 20% O2) was 5.3 ± 0.5 nM.

In the case of `CC1(C)CC(O)CC(C)(C)N1[O]` [Compound 9, 4-hydroxy-2,2,6,6-tetramethylpiperidine-N-oxyl, reference compound], the “Signal Decrease (%) (a)” value [1] is reported as 35.7%, the “Signal Decrease (%) (b)” value [1] is reported as 81% and the “Signal Decrease (%) (c)” value [1] is reported as 100%. For the same compound, the EC50 (Ercc1^−/− MEFs) was 229 ± 23.9 nM.

For `CC(C)C[C@@H](/C=C/CC(=O)Nc1ccc2c(c1)C(C)(C)N([O])C2(C)C)NC(=O)OC(C)(C)C` [Compound 20], the “Do, before irradiation” value [3] was 1.8 ± 0.1 Gy, the “ñ, before irradiation” value [3] was 1.0 ± 0.1 and the “Do, after irradiation” value [3] was 1.4 ± 0.1 Gy. For the same compound, the “ñ, after irradiation” value [3] was 2.4 ± 0.2, the “protection of cells” value [3] was “able to protect cells from multiple killing events” and the “Signal Decrease (%) (b)” value [1] was 15.5%. The “Signal Decrease (%) (c)” value [1] was 77.4%, the EC50 (Ercc1^−/− MEFs; Ercc1−/− MEFs, 20% O2) was 17.6 ± 1.4 nM and the “DPPH radical scavenging activity (in words)” value [2] was “slightly higher EC50 values than their corresponding nitroxide substructures”.

`CC1(C)CCCC(C)(C)N1O` [TEMPO-H, reference compound] showed an EC50 [2] of 79000 ± 2000 nM.

Compound `CC(C)C[C@H](NC(=O)OCc1ccccc1)[C@@H]1C[C@H]1CC(=O)NC1CC(C)(C)N([O])C(C)(C)C1` [Compound 4] has an EC50 (Ercc1^−/− MEFs; Ercc1−/− MEFs, 20% O2) of 231 nM.

With `N[C@@H]1CC2CCC[C@@H](C1)N2[O]` [Compound 12, 3-Amino-9-azabicyclo[3.3.1]nonane N-oxyl] the “stability (in words)” value [4] was “unstable”.

In the case of `CC(C)C[C@@H](/C=C/CC(=O)NC1CC(C)(C)N([O])C(C)(C)C1)NC(=O)OC(C)(C)C` [JP4-039], the “Do, before irradiation” value [3] is reported as 2.3 ± 0.3 Gy, the “ñ, before irradiation” value [3] is reported as 1.0 ± 0.1 and the “Do, after irradiation” value [3] is reported as 1.2 ± 0.1 Gy. For the same compound, the “ñ, after irradiation” value [3] was 3.5 ± 0.2, the “protection of cells” value [3] was “able to protect cells from multiple killing events” and the “Signal Decrease (%) (a)” value [1] was 29.7%. The “Signal Decrease (%) (b)” value [1] was 81.4%, the EC50 (Ercc1^−/− MEFs) was 210 ± 15.2 nM and the “DPPH radical scavenging activity (in words)” value [2] was “did not exhibit any significant activity”.

For 6-Boc-amino-1-Me-AZADO [Compound 32], the “Signal Decrease (%) (a)” value [1] was 100%, the “Signal Decrease (%) (b)” value [1] was 100% and the EC50 (Ercc1^−/− MEFs; Ercc1−/− MEFs, 20% O2) was 62.2 nM. The “DPPH radical scavenging activity (in words)” value [2] was “slightly higher EC50 values than their corresponding nitroxide substructures”.

For `CC(C)C[C@H](/C=C/CC(=O)NC1CC(C)(C)N([O])C(C)(C)C1)NC(=O)OC(C)(C)C` [Compound 5], the EC50 (Ercc1^−/− MEFs) was 200 nM.

For `CC(C)C[C@@H](/C=C/CC(=O)N[C@@H]1CC2CCC[C@@H](C1)N2[O])NC(=O)OC(C)(C)C` [Compound 26, (S,E)-N-(9-Azabicyclo[3.3.1]nonan-9-oxo-3-yl)-5-(tert-butoxycarbonylamino)-7-methyloct-3-enamide], the “Do, before irradiation” value [3] was 3.1 ± 0.6 Gy, the “ñ, before irradiation” value [3] was 1.0 ± 0.1 and the “Do, after irradiation” value [3] was 1.3 ± 0.1 Gy. The “ñ, after irradiation” value [3] was 2.7 ± 0.7, the “protection of cells” value [3] was “able to protect cells from multiple killing events” and the “Signal Decrease (%) (a)” value [1] was 100%. For the same compound, the “Signal Decrease (%) (b)” value [1] was 100%, the EC50 (Ercc1^−/− MEFs; Ercc1−/− MEFs, 20% O2) was 11.8 ± 2.7 nM and the “DPPH radical scavenging activity (in words)” value [2] was “slightly higher EC50 values than their corresponding nitroxide substructures”.

Work on `CC(C)C[C@@H](/C=C/CC(=O)NC1CC(C)(C)N([O])C(C)(C)C1)NP(=O)(c1ccccc1)c1ccccc1` [Compound 3] yielded an EC50 (Ercc1^−/− MEFs) of 70.4 nM.
